Consider four substances from patent US11091591B2, “Carbohydrate ligands that bind to antibodies against glycoepitopes of glycosphingolipids” (UNIVERSITÄT BASEL, priority 2015, dated 2021).

“Also recorded” adds a separate entry of the source.

For experiment [1], the target named is anti-GD1b IgG antibodies of neuropathy patient serum. The experiment in a line: Competitive binding ELISA (GanglioCombi), GD1b-coated wells, patient serum IgG. Conditions: serum P22 (IgG), dilution 1:50; table prints GD1a (IgG). Further details: species or system human. As for the experimental part:
(§1) The synthesized carbohydrate polymers 6 (GM1a epitope), 26 (GD1b epitope), and 34 (GT1a epitope) were tested in the GanglioCombi(-Light) ELISA and/or, in case of compound 6, the anti-GM1 ELISA (all kits from Bühlmann Laboratories, Schönenbuch, Switzerland). The 96 well microtiter plates coated with purified gangliosides from bovine cauda equina were washed two times with washing buffer (300 μl/well) before adding the carbohydrate polymers in eight different concentrations, 25 μl/well. The patient sera containing anti-ganglioside IgG or IgM antibodies were added in the appropriate dilutions, 25 μl/well (2× concentrated), to obtain a total of 50 μl volume per well. […] Finally, a stop solution (0.25 M sulfuric acid) was added (100 μl/well) and the degree of colorimetric reaction was determined by absorption measurement at 450 nm with a microplate reader (Spectramax 190, Molecular Devices, California, USA).
(§2) As indicated, the synthesized carbohydrate polymers 6 (GM1a epitope), 26 (GD1b epitope), and 34 (GT1a epitope) were tested in the GanglioCombi(-Light) ELISA and/or, in case of compound 6, the anti-GM1 ELISA (all kits from Bühlmann Laboratories, Schönenbuch, Switzerland). […] After a washing step ganglioside-bound antibodies (IgM/IgG) were detected with horseradish peroxidase labeled anti-human IgM or anti-human IgG antibodies, followed by a colorimetric reaction. […]
On the technique in general: In an ELISA, binding on a coated surface is turned into a signal by an enzyme label.

For experiment [2], the system named is anti-GM1a IgM antibodies of neuropathy patient sera. The experiment in a line: Competitive binding ELISA (GanglioCombi/anti-GM1), GM1a-coated wells, patient sera IgM. Further details: species or system human. As for the experimental part:
as §1, §2

For experiment [3], the system named is anti-GM1a IgG antibodies of neuropathy patient sera. The experiment in a line: Competitive binding ELISA (GanglioCombi/anti-GM1), GM1a-coated wells, patient sera IgG. Further details: species or system human. How it is done:
as §1, §2

Experiment [4] concerns anti-GQ1b IgG antibodies of neuropathy patient sera. The experiment in a line: Competitive binding ELISA (GanglioCombi), GQ1b-coated wells, patient sera IgG. Further details: species or system human. How it is done: The synthesized carbohydrate polymers 6 (GM1a epitope), 26 (GD1b epitope), and 34 (GT1a epitope) were tested in the GanglioCombi(-Light) ELISA and/or, in case of compound 6, the anti-GM1 ELISA (all kits from Bühlmann Laboratories, Schönenbuch, Switzerland). The 96 well microtiter plates coated with purified gangliosides from bovine cauda equina were washed two times with washing buffer (300 μl/well) before adding the carbohydrate polymers in eight different concentrations, 25 μl/well. The patient sera containing anti-ganglioside IgG or IgM antibodies were added in the appropriate dilutions, 25 μl/well (2× concentrated), to obtain a total of 50 μl volume per well. The plate was covered with a plate sealer and incubated for 2 h at 4-8° C. The wells were washed three times with wash buffer (300 μl/well) before either the anti-human IgM antibody-horseradish peroxidase conjugate or the anti-human IgG antibody-horseradish peroxidase conjugate was added (100 μl/well). The plate was incubated for 2 h at 4-8° C. […] Finally, a stop solution (0.25 M sulfuric acid) was added (100 μl/well) and the degree of colorimetric reaction was determined by absorption measurement at 450 nm with a microplate reader (Spectramax 190, Molecular Devices, California, USA).
As indicated, the synthesized carbohydrate polymers 6 (GM1a epitope), 26 (GD1b epitope), and 34 (GT1a epitope) were tested in the GanglioCombi(-Light) ELISA and/or, in case of compound 6, the anti-GM1 ELISA (all kits from Bühlmann Laboratories, Schönenbuch, Switzerland). […] After a washing step ganglioside-bound antibodies (IgM/IgG) were detected with horseradish peroxidase labeled anti-human IgM or anti-human IgG antibodies, followed by a colorimetric reaction. Successful competition of the compounds with gangliosides led to a decrease in measured OD450 nm, (optical density), because they block the binding sites of anti-ganglioside antibodies, preventing their binding to immobilized gangliosides. […] IgG and IgM antibody titers were determined for each serum in preliminary experiments. […]

The test system of experiment [5] is mouse monoclonal anti-HNK-1 (anti-MAG) IgM antibody. The experiment in a line: Competitive binding anti-MAG ELISA, MAG-coated wells. How it is done: (§3) The synthesized carbohydrate polymer 86 (HNK-1 epitope mimetic 58) was tested in the anti-MAG ELISA (kit from Bühlmann Laboratories, Schönenbuch, Switzerland). The assay protocol was performed according to the one described above for the GanglioCombi(-Light) ELISA. To determine the in vitro IC50 of polymer 86, the assay was performed with co-incubation of polymer (25 μl/well) and a mouse monoclonal anti-HNK-1 (anti-MAG) IgM antibody (25 μl/well) at a final dilution of 1:1000. To determine the in vivo efficacy of polymer 86, the assay was performed by incubation of mouse plasma diluted 1:100 (50 μl/well). Both, the mouse monoclonal anti-HNK-1 (anti-MAG) IgM and anti-HNK-1 (anti-MAG) IgM in plasma of immunized BALB/c mice (pre- and post-treatment) were detected with goat anti-mouse IgM HRP conjugate (Sigma Aldrich, A8786) diluted 1:10′000.

Experiment [6] relates to anti-HNK-1 (anti-MAG) IgM antibodies. Put plainly: Immunological mouse model for anti-MAG neuropathy. To be noted: immunized BALB/c mice, 10 mg/kg intravenous, up to 168 h (seven days) after administration. In kind it is in vivo. How it is done: as §3
Six gender matched BALB/c wild type mice at the age of 6 weeks were injected subcutaneously at multiple sites on the lower back with a total of 100 μg of the glycosphingolipids SGPG and SGLPG purified from bovine cauda equina (both glycolipids contain the HNK-1 carbohydrate epitope). The isolation of glycolipids was performed according to a protocol described by Burger et al. (Journal of Immunological Methods 1991, 140, 31-36). […] Mouse plasma samples were analyzed by the above described anti-MAG ELISA.

As to GD1b Polymer [Compound 26], the half-inhibitory concentration (IC50) in experiment [1] was found to be 313 µM.
As to GM1a Polymer [Compound 6], the IC50 in experiment [2] (serum P3, GM1a (IgM), dilution 1:50) was determined as 375 nM; in experiment [2] (serum P4, GM1a (IgM), dilution 1:400), 0.0594 nM; in experiment [3] (serum P21, GM1a (IgG), dilution 1:1'300), 0.219 µM; in experiment [3] (serum PP IgG Pos., GM1a (IgG), dilution 1:1'200), 28 µM.
Turning to GT1a Polymer [Polymer 34], the “neutralization of patient sera directed against GQ1b” value in experiment [4] (sera EK-GCO 1803 (IgG) and P23 (IgG)) is on record as “neutralized”. The IC50 stood at 12.5 µM in experiment [4] (serum EK-GCO 1803, GQ1b/GT1a (IgG), dilution 1:300) and 348 µM in experiment [4] (serum P23, GQ1b/GT1a (IgG), dilution 1:50).
Take HNK-1 Polymer [Compound 86]: in experiment [5], the “inhibition of binding of mouse monoclonal anti-HNK-1 IgM to the HNK-1 epitope on MAG” value is on record as “nanomolar concentrations”. This substance came in with a 50% inhibitory concentration (IC50) in experiment [5] (mouse anti-HNK-1 antibody, HNK-1 (IgM), final dilution 1:1000) of 0.0513 ± 0.0442 µM. For the same substance, in experiment [6], the “reduction of anti-HNK-1 (anti-MAG) IgM antibody levels” value is on record as “significantly reduced; also recorded: significant reduction”.

One may read the IC50 as the concentration at which inhibition is half-maximal. A low value points to greater potency in that assay.
